Measurements taken from patent US8466112B2, “Compositions comprising Ornithine Ketoglutarate (OKG)” (Cutech S.r.l., priority 2007, dated 2013).

Columns and labels:
hair follicles [1] = assay: Relative growth of hair follicles compared to control, OKG versus Ornithine and alpha-Ketoglutarate; type: cell-based, human; details: for Growth of hair follicles - elongation ± standard error, relative to control (100): after 6 days of cultivation
Experimental: (§1) Human anagen hair follicles were isolated from scalp skin and transferred for cultivation in sterile 24 well plates using a modified Williams' Medium E. Cultivation took place for nine days, while the experimental treatment of the follicles started 24 hours from the beginning of the cultivation.
(§2) Hair follicles taken from a single donor were selected for the experiments after 18 h of cultivation. Only those follicles showing a good vital stage and a growth of not less than 0.2 mm have been considered suitable to be maintained in culture. 4 groups were prepared comprising 9 follicles, plated at the density of 3 hair follicles/plate. […] The growth of the hair follicles was studied by microphotography and subsequently determined by image analysis. All the hair follicles were photographed every two days.
In order to show the superiority of OKG compared to Ornithine on one hand and alpha-Ketoglutarate on the other, the influence of these compounds on the metabolism of hair follicles was studied under the conditions as explained in Examples 1 and 2. […] Examples 3 and 4 are according to the invention, examples C1-C4 are shown for comparison.

[2] = tested on: cells in the dermopapilla; assay: Number of proliferative (Ki-67) and apoptotic (Apoptag) cells in the dermopapilla; type: cell-based, human; details: after three days of cultivation
Experimental: After three days of cultivation samples were taken in order to determine the relative number of cells being in the proliferative or apoptotic state. The cells in apoptotic state were determined using an Apoptag Fluorescein In-situ Apoptosis Detection Kit (Chemicon International cod. S7110), while those in proliferative state were marked with the antibody Ki-67 (monoclonal mouse anti-human Ki-67, clone MIB1, Dako Cytomation cod. M7240). The total number of cells in the dermopapilla was analysed by marking their nuclei by means of DAPI (4′, 6-diamidino-2-phenylindol dihydrochloride). The percentage of cells in the proliferative or apoptotic stage compared to the total number of cells was determined again by image analysis.

hair follicles [3] = assay: Histological analysis of hair follicles (anagen/catagen phase); type: cell-based, human; details: after 9 days of cultivation
Description: The experiment according to Examples 1 and 2 was terminated after 9 days of cultivation. Subsequently, the hair follicles were subjected to a histological analysis by colouring with haematossilin and eosin in order to verify the morphological state of the dermopapilla.

[4] = tested on: Human anagen hair follicles; assay: Growth (elongation) of cultivated human hair follicles; type: cell-based
Experimental: as §1, §2

A 549 cells = details: disclosed in WO 06/075924 A1; cited from earlier work

In the case of `NCCC[C@H](N)C(=O)O` [Ornithine], the “Growth of hair follicles - elongation ± standard error, relative to control (100)” value (hair follicles [1]; Conc. 0.001% b.w.) is reported as 105.1 ± 5.1% and the “Growth of hair follicles - elongation ± standard error, relative to control (100)” value (hair follicles [1]; Conc. 0.01% b.w.) is reported as 102.1 ± 5.0%.

In the case of `O=C(O)CCC(=O)C(=O)O` [alpha-Ketoglutarate], the “Growth of hair follicles - elongation ± standard error, relative to control (100)” value (hair follicles [1]; Conc. 0.001% b.w.) is reported as 103.1 ± 3.1% and the “Growth of hair follicles - elongation ± standard error, relative to control (100)” value (hair follicles [1]; Conc. 0.01% b.w.) is reported as 103.8 ± 3.8%.

For Ornithine Ketoglutarate [OKG], the “Number of cells in Apoptotic stage ± standard error (of total cells)” value ([2]; OKG 0.1% b.w., control 0.48%) was 0.17% ± 0.073, the “Number of cells in Proliferative stage ± standard error (of total cells)” value ([2]; OKG 0.1% b.w., control 10.74%) was 10.51% ± 0.17 and the “Effect on number of apoptotic cells (in words)” value [2] was “significantly reduces the number of apoptotic cells”. For the same molecule, the “Hair follicles in Catagen phase” value (hair follicles [3]; OKG 0.1% b.w., control 44%) was 22%, the “Hair follicles in Anagen phase” value (hair follicles [3]; OKG 0.1% b.w., control 56%) was 78% and the “Effect on decline to the catagen phase (in words)” value (hair follicles [3]) was “significantly delayed the decline to the catagen phase”. The “Growth of hair follicles - elongation ± standard error” value ([4]; OKG 0.005% b.w. in cultivation medium, day 1 of cultivation) was 0 mm, the “Growth of hair follicles - elongation ± standard error” value ([4]; OKG 0.005% b.w. in cultivation medium, day 3 of cultivation) was 0.84 ± 0.022 mm and the “Growth of hair follicles - elongation ± standard error” value ([4]; OKG 0.005% b.w. in cultivation medium, day 5 of cultivation) was 1.50 ± 0.078 mm. The “Growth of hair follicles - elongation ± standard error” value ([4]; OKG 0.005% b.w. in cultivation medium, day 7 of cultivation) was 1.98 ± 0.155 mm, the “Growth of hair follicles - elongation ± standard error” value ([4]; OKG 0.005% b.w. in cultivation medium, day 9 of cultivation) was 2.35 ± 0.253 mm and the “Growth of hair follicles - elongation ± standard error” value ([4]; OKG 0.01% b.w. in cultivation medium, day 1 of cultivation) was 0 mm. For the same molecule, the “Growth of hair follicles - elongation ± standard error” value ([4]; OKG 0.01% b.w. in cultivation medium, day 3 of cultivation) was 0.88 ± 0.024 mm, the “Growth of hair follicles - elongation ± standard error” value ([4]; OKG 0.01% b.w. in cultivation medium, day 5 of cultivation) was 1.63 ± 0.067 mm and the “Growth of hair follicles - elongation ± standard error” value ([4]; OKG 0.01% b.w. in cultivation medium, day 7 of cultivation) was 2.25 ± 0.086 mm. The “Growth of hair follicles - elongation ± standard error” value ([4]; OKG 0.01% b.w. in cultivation medium, day 9 of cultivation) was 2.77 ± 0.163 mm, the “Effect on growth of the hair follicles (in words)” value ([4]; addition of OKG 0.005 to 0.01% b.w. versus control) was “significant increase in growth of the hair follicles” and the “Effect on proliferation of A 549 cells (in words)” value (A 549 cells) was “stimulate the proliferation of A 549 cells”. The “Hair follicle stimulation compared to Ornithine and alpha-Ketoglutarate taken alone (in words)” value (hair follicles [1]; 0.001 and 0.01% b.w., 6 days) was “superiority and synergistic effect”, the “Growth of hair follicles - elongation ± standard error, relative to control (100)” value (hair follicles [1]; Conc. 0.001% b.w.) was 112.7 ± 3.1% and the “Growth of hair follicles - elongation ± standard error, relative to control (100)” value (hair follicles [1]; Conc. 0.01% b.w.) was 110.4 ± 4.0%.
